# Experimental data taken from PubChem BioAssay (NCI).
#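 Cultured in 96-well plates, cells were exposed to test compound for 48 hours across five concentrations. TGI is the concentration that stops growth completely.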
# Tested on: MALME-3M melanoma
# Assay: DTP human tumour cell line panel, 48 h
row,Compound,TGI [µM]
1,Cc1nc2cc(C(F)(F)F)ccc2[nH]c1=O,> 100
2,Nc1ncnc2c1ncn2C(=O)NC12CC3CC(CC(C3)C1)C2,> 100
3,CSc1c(C(=O)Nc2ccc(C)cc2)c(N)[nH]c(=O)c1C#N,> 100
4,C(=Nc1ccc(-c2nc3ccccc3s2)cc1)c1ccco1,> 100
5,O=C1CC(c2ccc([N+](=O)[O-])cc2)C2(C(=O)NC(=S)NC2=O)C(c2ccc([N+](=O)[O-])cc2)C1 (configuration not stated),32.2
6,N#CSCc1cccc(Nc2cc(=O)[nH]c(=O)[nH]2)c1,> 100

# Tested on: SK-MEL-2 melanoma
# Assay: DTP human tumour cell line panel, 48 h
row,Compound,TGI [µM]
1,Cc1nc2cc(C(F)(F)F)ccc2[nH]c1=O,> 100
2,Nc1ncnc2c1ncn2C(=O)NC12CC3CC(CC(C3)C1)C2,> 100
3,CSc1c(C(=O)Nc2ccc(C)cc2)c(N)[nH]c(=O)c1C#N,> 100
4,C(=Nc1ccc(-c2nc3ccccc3s2)cc1)c1ccco1,> 100
5,CC(=O)/C(=C/n1c(=S)sc2ccccc21)C(=O)Nc1ccccc1C,> 100
6,N#CSCc1cccc(Nc2cc(=O)[nH]c(=O)[nH]2)c1,> 100

# Tested on: IGROV1 ovarian
# Assay: DTP human tumour cell line panel, 48 h
row,Compound,TGI [µM]
1,C(=Nc1ccc(-c2nc3ccccc3s2)cc1)c1ccco1,> 100
2,CC(=O)/C(=C/n1c(=S)sc2ccccc21)C(=O)Nc1ccccc1C,> 100
3,O=C1CC(c2ccc([N+](=O)[O-])cc2)C2(C(=O)NC(=S)NC2=O)C(c2ccc([N+](=O)[O-])cc2)C1 (configuration not stated),45.2
4,N#CSCc1cccc(Nc2cc(=O)[nH]c(=O)[nH]2)c1,> 100

# Tested on: SR leukemia
# Assay: DTP human tumour cell line panel, 48 h
row,Compound,TGI [µM]
1,CSc1c(C(=O)Nc2ccc(C)cc2)c(N)[nH]c(=O)c1C#N,> 100
2,C(=Nc1ccc(-c2nc3ccccc3s2)cc1)c1ccco1,> 100
3,O=C1CC(c2ccc([N+](=O)[O-])cc2)C2(C(=O)NC(=S)NC2=O)C(c2ccc([N+](=O)[O-])cc2)C1 (configuration not stated),> 100

# Tested on: OVCAR-4 ovarian
# Assay: DTP human tumour cell line panel, 48 h
row,Compound,TGI [µM]
1,Cc1nc2cc(C(F)(F)F)ccc2[nH]c1=O,> 100
2,Nc1ncnc2c1ncn2C(=O)NC12CC3CC(CC(C3)C1)C2,> 100
3,CSc1c(C(=O)Nc2ccc(C)cc2)c(N)[nH]c(=O)c1C#N,> 100
4,C(=Nc1ccc(-c2nc3ccccc3s2)cc1)c1ccco1,> 100
5,CC(=O)/C(=C/n1c(=S)sc2ccccc21)C(=O)Nc1ccccc1C,> 100
6,O=C1CC(c2ccc([N+](=O)[O-])cc2)C2(C(=O)NC(=S)NC2=O)C(c2ccc([N+](=O)[O-])cc2)C1 (configuration not stated),> 100
7,N#CSCc1cccc(Nc2cc(=O)[nH]c(=O)[nH]2)c1,> 100

# Tested on: NCI-H23 lung
# Assay: DTP human tumour cell line panel, 48 h
row,Compound,TGI [µM]
1,Cc1nc2cc(C(F)(F)F)ccc2[nH]c1=O,> 100
2,Nc1ncnc2c1ncn2C(=O)NC12CC3CC(CC(C3)C1)C2,> 100
3,CSc1c(C(=O)Nc2ccc(C)cc2)c(N)[nH]c(=O)c1C#N,> 100
4,C(=Nc1ccc(-c2nc3ccccc3s2)cc1)c1ccco1,> 100
5,CC(=O)/C(=C/n1c(=S)sc2ccccc21)C(=O)Nc1ccccc1C,> 100
6,O=C1CC(c2ccc([N+](=O)[O-])cc2)C2(C(=O)NC(=S)NC2=O)C(c2ccc([N+](=O)[O-])cc2)C1 (configuration not stated),64.1
7,N#CSCc1cccc(Nc2cc(=O)[nH]c(=O)[nH]2)c1,> 100

# Tested on: SF-295 CNS
# Assay: DTP human tumour cell line panel, 48 h
row,Compound,TGI [µM]
1,Cc1nc2cc(C(F)(F)F)ccc2[nH]c1=O,> 100
2,Nc1ncnc2c1ncn2C(=O)NC12CC3CC(CC(C3)C1)C2,> 100
3,C(=Nc1ccc(-c2nc3ccccc3s2)cc1)c1ccco1,59.1
4,CC(=O)/C(=C/n1c(=S)sc2ccccc21)C(=O)Nc1ccccc1C,> 100
5,O=C1CC(c2ccc([N+](=O)[O-])cc2)C2(C(=O)NC(=S)NC2=O)C(c2ccc([N+](=O)[O-])cc2)C1 (configuration not stated),60.1
6,N#CSCc1cccc(Nc2cc(=O)[nH]c(=O)[nH]2)c1,> 100

# Tested on: KM12 colon
# Assay: DTP human tumour cell line panel, 48 h
row,Compound,TGI [µM]
1,Cc1nc2cc(C(F)(F)F)ccc2[nH]c1=O,> 100
2,Nc1ncnc2c1ncn2C(=O)NC12CC3CC(CC(C3)C1)C2,> 100
3,CSc1c(C(=O)Nc2ccc(C)cc2)c(N)[nH]c(=O)c1C#N,> 100
4,C(=Nc1ccc(-c2nc3ccccc3s2)cc1)c1ccco1,> 100
5,CC(=O)/C(=C/n1c(=S)sc2ccccc21)C(=O)Nc1ccccc1C,> 100
6,O=C1CC(c2ccc([N+](=O)[O-])cc2)C2(C(=O)NC(=S)NC2=O)C(c2ccc([N+](=O)[O-])cc2)C1 (configuration not stated),36.3
7,N#CSCc1cccc(Nc2cc(=O)[nH]c(=O)[nH]2)c1,> 100

# Tested on: M14 melanoma
# Assay: DTP human tumour cell line panel, 48 h
row,Compound,TGI [µM]
1,Cc1nc2cc(C(F)(F)F)ccc2[nH]c1=O,> 100
